Laboratory results: patent US11453683B1, “KRas G12D inhibitors” (Mirati Therapeutics, Inc., priority 2019, dated 2022)

Tested on: KRas G12D-mediated phosphorylation of ERK
Experiment: Inhibition of KRas G12D-mediated phosphorylation of ERK in AGS cells
Format: cell-based
Conditions: Homo sapiens; AGS cells expressing G12D, 3 hours, phospho-ERK normalized to GAPDH
Procedure, shortened: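 Fixed, methanol-permeabilized; phospho-ERK (Thr202/Tyr204) by in-cell immunofluorescence normalized to GAPDH. Percent of DMSO control, IC50 by 4-parameter fit.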

SMILES	IC50
CN1CCC[C@H]1COc1nc(N2CC3CCC(C=O)(C2)N3)c2cnc(-c3cc(O)cc4ccccc34)c(F)c2n1 (stereo partly drawn) [Example 214, 3-(8-fluoro-7-(3-hydroxynaphthalen-1-yl)-2-(((S)-1-methylpyrrolidin-2-yl)methoxy)pyrido[4,3-d]pyrimidin-4-yl)-3,8-diazabicyclo[3.2.1]octane-1-carbaldehyde]	> 16.7 µM
CO[C@H]1CN2CCC[C@]2(COc2nc(N3CC4CCC(C3)N4)c3cnc(-c4cc(O)cc5cccc(F)c45)c(F)c3n2)C1 (stereo in doubt) [Example 406, 4-(4-((1R,5S)-3,8-diazabicyclo[3.2.1]octan-3-yl)-8-fluoro-2-((2-methoxytetrahydro-1H-pyrrolizin-7a(5H)-yl)methoxy)pyrido[4,3-d]pyrimidin-7-yl)-5-fluoronaphthalen-2-ol]	0.44 µM
O=S1(=O)CCC(Oc2nc(N3C[C@H]4CC[C@@H](C3)N4)c3cnc(-c4cc(O)cc5ccccc45)c(F)c3n2)CC1 [Example 71, 4-((4-((1R,5S)-3,8-diazabicyclo[3.2.1]octan-3-yl)-8-fluoro-7-(3-hydroxynaphthalen-1-yl)pyrido[4,3-d]pyrimidin-2-yl)oxy)tetrahydro-2H-thiopyran 1,1-dioxide]	> 16.7 µM
CN1CCC[C@H]1COc1nc(N2CC3CCC(CO)(C2)N3)c2cnc(-c3cc(O)cc4ccccc34)c(F)c2n1 (stereo partly drawn) [Example 215, 4-(8-fluoro-4-(1-(hydroxymethyl)-3,8-diazabicyclo[3.2.1]octan-3-yl)-2-(((S)-1-methylpyrrolidin-2-yl)methoxy)pyrido[4,3-d]pyrimidin-7-yl)naphthalen-2-ol bis(2,2,2-trifluoroacetate)]	> 16.7 µM
CN1CCC[C@H]1COc1nc(N2C[C@H]3CC[C@@H](C2)N3)c2cnc(-c3cc(O)cc4cccc(Cl)c34)c(F)c2n1 [Example 63, 4-(4-((1R,5S)-3,8-diazabicyclo[3.2.1]octan-3-yl)-8-fluoro-2-(((S)-1-methylpyrrolidin-2-yl)methoxy)pyrido[4,3-d]pyrimidin-7-yl)-5-chloronaphthalen-2-ol]	0.187 µM
CN1CCC[C@H]1COc1nc(N2C[C@H]3CC[C@@H](C2)N3)c2cnc(-c3cc(O)c(Br)c4ccccc34)c(F)c2n1 [Example 14, 4-(4-((1R,5S)-3,8-diazabicyclo[3.2.1]octan-3-yl)-8-fluoro-2-(((S)-1-methylpyrrolidin-2-yl)methoxy)pyrido[4,3-d]pyrimidin-7-yl)-1-bromonaphthalen-2-ol]	4.84 µM
Cc1ccc2cccc(-c3ncc4c(N5C[C@H]6CC[C@@H](C5)N6)nc(OC[C@@H]5CCCN5C)nc4c3F)c2c1 [Example 321, 4-((1R,5S)-3,8-diazabicyclo[3.2.1]octan-3-yl)-8-fluoro-7-(7-methylnaphthalen-1-yl)-2-(((S)-1-methylpyrrolidin-2-yl)methoxy)pyrido[4,3-d]pyrimidine]	> 16.7 µM
Cc1cccnc1CCOc1nc(N2C[C@H]3CC[C@@H](C2)N3)c2cnc(-c3cc(O)cc4ccccc34)c(F)c2n1 [Example 6, 4-(4-((1R,5S)-3,8-diazabicyclo[3.2.1]octan-3-yl)-8-fluoro-2-(2-(3-methylpyridin-2-yl)ethoxy)pyrido[4,3-d]pyrimidin-7-yl)naphthalen-2-ol]	11.5 µM
CC(C)Cn1ccnc1CCOc1nc(N2C[C@H]3CC[C@@H](C2)N3)c2cnc(-c3cc(O)cc4ccccc34)c(F)c2n1 [Example 85, 4-(4-((1R,5S)-3,8-diazabicyclo[3.2.1]octan-3-yl)-8-fluoro-2-(2-(1-isobutyl-1H-imidazol-2-yl)ethoxy)pyrido[4,3-d]pyrimidin-7-yl)naphthalen-2-ol]	> 16.7 µM
CN1CCC[C@H]1COc1nc(N2CC3C[C@@H](O)C(C2)N3)c2cnc(-c3cc(O)cc4ccccc34)c(F)c2n1 (stereo partly drawn) [Example 31, 3-(8-fluoro-7-(3-hydroxynaphthalen-1-yl)-2-(((S)-1-methylpyrrolidin-2-yl)methoxy)pyrido[4,3-d]pyrimidin-4-yl)-3,8-diazabicyclo[3.2.1]octan-6-ol]	2.43 µM
